Laboratory results taken from the supplement of paper PMC10307832.

Legend:
Assay in all cases: relative viability (nuclei count vs DMSO), 5 days (fraction); higher = more cells survive
[1] = compound: CC1=C(C(=NN1)C)CC2=C(C3=C(S2)N(C(=O)N(C3=O)C)CC(C)C)C(=O)N4C[C@@H](CO4)O + CC(=O)Nc1cccc(-n2c(=O)n(C3CC3)c(=O)c3c(Nc4ccc(I)cc4F)n(C)c(=O)c(C)c32)c1 [Trametinib] (partner 0.02 µM)
Summary of the method: (§1)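 Lung cancer cell lines were pin-tool dosed in 1536-well plates on the day after seeding, with either a lone drug or a fixed anchor-drug dose plus five library-drug doses (not always all listed) in √10 steps. Nuclei were counted on 4× images after 5 days. Relative viability is the ratio of treated-well to vehicle-well nuclei counts, with each value a median of duplicate plates.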

[2] = compound: CC1=C(C(=NN1)C)CC2=C(C3=C(S2)N(C(=O)N(C3=O)C)CC(C)C)C(=O)N4C[C@@H](CO4)O + CCNC(=O)c1noc(-c2cc(C(C)C)c(O)cc2O)c1-c1ccc(CN2CCOCC2)cc1 [Luminespib] (partner 0.01 µM)
Summary of the method: as §1

IDH-C35 + Olaparib = compound: Cc1ccccc1C(C(=O)NC1CCCCC1)N(C(=O)Cn1ccnc1C)c1cccc(F)c1 [IDH-C35] + O=C(c1cc(Cc2n[nH]c(=O)c3ccccc23)ccc1F)N1CCN(C(=O)C2CC2)CC1 [Olaparib] (partner 8 µM)
Summary of the method: as §1

IDH-C35 + Pictilisib = compound: Cc1ccccc1C(C(=O)NC1CCCCC1)N(C(=O)Cn1ccnc1C)c1cccc(F)c1 [IDH-C35] + CS(=O)(=O)N1CCN(Cc2cc3nc(-c4cccc5[nH]ncc45)nc(N4CCOCC4)c3s2)CC1 [Pictilisib] (partner 1 µM)
Summary of the method: as §1

| Cell Line | relative viability ([1]; first compound 0.0025 µM) | relative viability ([1]; first compound 0.007906 µM) | relative viability ([1]; first compound 0.025 µM) | relative viability ([1]; first compound 0.07906 µM) | relative viability ([1]; first compound 0.25 µM) | relative viability ([2]; first compound 0.0025 µM) | relative viability ([2]; first compound 0.007906 µM) | relative viability ([2]; first compound 0.025 µM) | relative viability ([2]; first compound 0.07906 µM) | relative viability ([2]; first compound 0.25 µM) | relative viability (IDH-C35 + Olaparib; first compound 0.08 µM) | relative viability (IDH-C35 + Olaparib; first compound 0.253 µM) | relative viability (IDH-C35 + Olaparib; first compound 0.8 µM) | relative viability (IDH-C35 + Olaparib; first compound 2.53 µM) | relative viability (IDH-C35 + Olaparib; first compound 8 µM) | relative viability (IDH-C35 + Pictilisib; first compound 0.08 µM) | relative viability (IDH-C35 + Pictilisib; first compound 0.253 µM) | relative viability (IDH-C35 + Pictilisib; first compound 0.8 µM) | relative viability (IDH-C35 + Pictilisib; first compound 2.53 µM) | relative viability (IDH-C35 + Pictilisib; first compound 8 µM) |
| --- | --- | --- | --- | --- | --- | --- | --- | --- | --- | --- | --- | --- | --- | --- | --- | --- | --- | --- | --- | --- |
| NCI-H1651 | 0.865 | 0.861 | 0.849 | 0.798 | 0.819 | 0.843 | 0.762 | 0.969 | 0.855 | 1.09 | 0.173 | 0.179 | 0.181 | 0.166 | 0.188 | 0.562 | 0.522 | 0.504 | 0.492 | 0.434 |
| NCI-H1666 | 0.876 | 0.824 | 0.885 | 0.786 | 0.891 | 0.991 | 1 | 1.06 | 1.04 | 1.1 | 0.777 | 0.795 | 0.721 | 0.781 | 0.718 | 0.471 | 0.404 | 0.322 | 0.622 | 0.426 |
| NCI-H1734 | 0.666 | 0.757 | 0.675 | 0.62 | 0.665 | 0.297 | 0.184 | 0.173 | 0.184 | 0.167 | 0.585 | 0.628 | 0.61 | 0.634 | 0.588 | 0.503 | 0.499 | 0.427 | 0.414 | 0.432 |
| NCI-H1755 | 0.829 | 0.818 | 0.745 | 0.73 | 0.761 | 0.592 | 0.511 | 0.524 | 0.356 | 0.438 | 0.923 | 0.806 | 0.884 | 0.847 | 0.866 | 0.451 | 0.411 | 0.448 | 0.452 | 0.412 |
| NCI-H1792 | 0.471 | 0.418 | 0.409 | 0.548 | 0.585 | 0.458 | 0.488 | 0.416 | 0.338 | 0.379 | 0.508 | 0.444 | 0.417 | 0.474 | 0.362 | 0.231 | 0.3 | 0.251 | 0.345 | 0.277 |
| NCI-H1793 | 0.378 | 0.435 | 0.392 | 0.455 | 0.36 | 0.608 | 0.17 | 0.208 | 0.164 | 0.187 | 0.934 | 0.903 | 0.932 | 0.862 | 0.859 | 0.265 | 0.336 | 0.364 | 0.371 | 0.256 |
| NCI-H1915 | 0.295 | 0.307 | 0.288 | 0.302 | 0.32 | 0.868 | 0.738 | 0.75 | 0.768 | 0.816 | 0.267 | 0.269 | 0.245 | 0.274 | 0.256 | 0.976 | 0.914 | 0.975 | 0.934 | 0.914 |
| NCI-H1944 | 0.422 | 0.438 | 0.478 | 0.396 | 0.385 | 0.81 | 1.11 | 0.714 | 0.698 | 0.801 | 0.402 | 0.429 | 0.451 | 0.391 | 0.407 | 0.38 | 0.364 | 0.323 | 0.343 | 0.346 |
